Data published in patent US8541427B2, “Phenyl-substituted 2-imino-3-methyl pyrrolo pyrimidinone compounds as BACE-1 inhibitors, compositions, and their use” (Merck, Sharp & Dohme, Corp., priority 2008, dated 2013).
Read-outs that look alike come from different tables or passages of the source.

What was measured:
[1] = target: soluble human BACE1 catalytic domain (Homo sapiens (Human), UniProt P56817); test: BACE1 HTRF FRET Assay; assay type: biochemical; conditions: Ki calculated from IC50 with Cheng-Prusoff equation;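 note: cleavage of a quenched APP Swedish mutant peptide (QSY7 quencher, Europium donor) measured as rise in 620 nm fluorescence after 1.5 h at 30 °C, inhibition suppresses signal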
Chain of soluble human BACE1 catalytic domain (P56817 75-416): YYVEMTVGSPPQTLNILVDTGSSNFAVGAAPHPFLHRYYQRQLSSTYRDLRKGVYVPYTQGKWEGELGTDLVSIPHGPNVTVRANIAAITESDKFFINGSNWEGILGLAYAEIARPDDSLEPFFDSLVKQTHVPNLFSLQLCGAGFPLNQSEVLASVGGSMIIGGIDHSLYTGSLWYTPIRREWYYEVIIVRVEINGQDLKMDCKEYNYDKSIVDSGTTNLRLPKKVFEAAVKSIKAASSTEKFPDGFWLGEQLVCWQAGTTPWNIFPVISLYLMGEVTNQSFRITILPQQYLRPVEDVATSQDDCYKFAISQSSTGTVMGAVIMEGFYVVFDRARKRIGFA

[2] = target: BACE1 (Aβ40 in HEK293-APPswe/lon cells) (Homo sapiens (Human), UniProt P56817); test: BACE Inhibitor Whole Cell IC50 Determination Using HEK293-APPswe/lon Cells (Aβ40); assay type: cell-based; conditions: 4 hours
Chain of BACE1 (Aβ40 in HEK293-APPswe/lon cells) (P56817 46-501): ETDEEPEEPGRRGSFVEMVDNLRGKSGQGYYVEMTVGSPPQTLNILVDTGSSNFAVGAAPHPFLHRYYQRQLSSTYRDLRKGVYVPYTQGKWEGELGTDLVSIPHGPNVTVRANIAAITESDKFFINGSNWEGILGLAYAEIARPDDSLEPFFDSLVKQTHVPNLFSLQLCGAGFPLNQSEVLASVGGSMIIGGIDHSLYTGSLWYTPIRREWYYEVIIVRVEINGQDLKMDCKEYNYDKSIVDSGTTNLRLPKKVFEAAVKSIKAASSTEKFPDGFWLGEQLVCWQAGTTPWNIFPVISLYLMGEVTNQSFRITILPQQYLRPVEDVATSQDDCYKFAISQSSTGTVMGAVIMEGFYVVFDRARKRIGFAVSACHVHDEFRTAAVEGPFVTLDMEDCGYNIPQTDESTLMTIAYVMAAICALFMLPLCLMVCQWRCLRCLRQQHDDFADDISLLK

human liver Cathepsin D = human liver Cathepsin D (Homo sapiens (Human), UniProt P07339); test: Human Cathepsin D FRET Assay; assay type: biochemical; conditions: selectivity with respect to Cathepsin D vs BACE1
Chain of human liver Cathepsin D (P07339 65-412): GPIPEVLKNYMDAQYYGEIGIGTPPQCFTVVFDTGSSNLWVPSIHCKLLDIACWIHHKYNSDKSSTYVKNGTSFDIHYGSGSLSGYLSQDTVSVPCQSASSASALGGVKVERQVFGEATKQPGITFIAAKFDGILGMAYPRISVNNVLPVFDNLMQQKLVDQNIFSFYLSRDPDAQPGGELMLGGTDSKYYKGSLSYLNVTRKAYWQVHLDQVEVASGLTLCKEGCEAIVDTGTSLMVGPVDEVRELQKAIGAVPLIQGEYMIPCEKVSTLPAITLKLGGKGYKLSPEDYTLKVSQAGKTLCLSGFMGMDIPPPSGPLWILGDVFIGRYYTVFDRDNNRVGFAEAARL
Chain of human liver Cathepsin D (P07339 169-412): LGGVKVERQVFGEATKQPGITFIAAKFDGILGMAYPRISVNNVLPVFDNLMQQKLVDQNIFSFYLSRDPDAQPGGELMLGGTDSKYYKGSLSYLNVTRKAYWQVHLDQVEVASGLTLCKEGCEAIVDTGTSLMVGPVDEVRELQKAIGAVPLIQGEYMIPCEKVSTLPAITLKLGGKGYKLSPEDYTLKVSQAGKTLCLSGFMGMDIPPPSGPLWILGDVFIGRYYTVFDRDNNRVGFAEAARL

CYP2D6 = CYP2D6 (Homo sapiens (Human), UniProt P10635); test: CYP Inhibition Assay, CYP2D6; assay type: in vitro ADME; conditions: human liver microsomes
Chain of CYP2D6 (P10635 whole entry): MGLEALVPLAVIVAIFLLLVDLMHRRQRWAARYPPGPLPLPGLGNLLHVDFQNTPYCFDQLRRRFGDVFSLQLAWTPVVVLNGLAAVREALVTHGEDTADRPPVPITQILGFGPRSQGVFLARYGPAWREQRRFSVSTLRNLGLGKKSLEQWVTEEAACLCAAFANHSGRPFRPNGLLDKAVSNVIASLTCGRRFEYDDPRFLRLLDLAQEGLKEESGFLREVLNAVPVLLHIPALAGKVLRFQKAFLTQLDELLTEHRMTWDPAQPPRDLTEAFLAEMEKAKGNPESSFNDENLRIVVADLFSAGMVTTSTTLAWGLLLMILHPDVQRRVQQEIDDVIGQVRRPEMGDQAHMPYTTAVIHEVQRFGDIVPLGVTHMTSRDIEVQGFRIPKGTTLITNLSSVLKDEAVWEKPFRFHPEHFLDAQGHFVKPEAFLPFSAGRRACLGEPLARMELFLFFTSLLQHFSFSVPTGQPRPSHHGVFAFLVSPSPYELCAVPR

CYP3A4 = CYP3A4 (Homo sapiens (Human), UniProt P08684); test: CYP Inhibition Assay, CYP3A4; assay type: in vitro ADME; conditions: human liver microsomes;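 note: CYP probe substrate held near its Km, inhibition judged from metabolite formation quantified by LC-MS/MS against a standard curve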
Chain of CYP3A4 (P08684 whole entry): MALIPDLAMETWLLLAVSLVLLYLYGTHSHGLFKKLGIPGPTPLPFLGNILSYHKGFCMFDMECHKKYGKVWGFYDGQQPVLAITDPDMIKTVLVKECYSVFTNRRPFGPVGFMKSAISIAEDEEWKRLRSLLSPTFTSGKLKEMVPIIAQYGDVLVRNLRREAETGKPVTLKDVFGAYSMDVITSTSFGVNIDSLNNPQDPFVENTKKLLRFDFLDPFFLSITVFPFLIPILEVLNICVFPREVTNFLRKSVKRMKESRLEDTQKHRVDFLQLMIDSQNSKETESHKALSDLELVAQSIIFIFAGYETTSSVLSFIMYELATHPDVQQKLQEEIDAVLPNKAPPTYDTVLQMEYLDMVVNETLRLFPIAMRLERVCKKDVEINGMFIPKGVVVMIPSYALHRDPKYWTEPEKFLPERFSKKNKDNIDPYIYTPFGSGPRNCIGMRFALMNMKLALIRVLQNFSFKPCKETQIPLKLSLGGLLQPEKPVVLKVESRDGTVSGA

CYP2C9 = CYP2C9 (Homo sapiens (Human), UniProt P11712); test: CYP Inhibition Assay, CYP2C9; assay type: in vitro ADME; conditions: human liver microsomes;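 note: probe substrate held close to its Km, with metabolite formation quantified by LC-MS/MS against a calibration curve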
Chain of CYP2C9 (P11712 whole entry): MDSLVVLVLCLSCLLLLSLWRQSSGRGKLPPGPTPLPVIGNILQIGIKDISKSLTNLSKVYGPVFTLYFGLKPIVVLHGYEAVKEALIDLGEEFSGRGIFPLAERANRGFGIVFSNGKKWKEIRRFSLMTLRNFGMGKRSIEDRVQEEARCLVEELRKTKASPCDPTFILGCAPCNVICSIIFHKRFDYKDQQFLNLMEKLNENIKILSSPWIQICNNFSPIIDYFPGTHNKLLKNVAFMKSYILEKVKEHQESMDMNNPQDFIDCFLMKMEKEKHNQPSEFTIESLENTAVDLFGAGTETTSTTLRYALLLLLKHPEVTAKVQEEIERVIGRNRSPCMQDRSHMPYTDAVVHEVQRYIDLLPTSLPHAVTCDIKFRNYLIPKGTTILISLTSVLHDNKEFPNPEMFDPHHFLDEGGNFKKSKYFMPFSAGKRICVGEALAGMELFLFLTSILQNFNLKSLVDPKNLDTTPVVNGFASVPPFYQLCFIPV

hERG [3] = target: T1, hERG (Homo sapiens (Human), UniProt Q12809); test: hERG screening, IonWorks Quattro (hERG L929 cells); assay type: cell-based; conditions: L929 cells expressing hERG; for inhibition at 5 min, 1 uM: read-out: HERG Ionworks % Inhib 1 uM; for inhibition at 5 min, 10 uM: read-out: HERG Ionworks % Inhib 10 uM
T1 sequence (Q12809 whole entry): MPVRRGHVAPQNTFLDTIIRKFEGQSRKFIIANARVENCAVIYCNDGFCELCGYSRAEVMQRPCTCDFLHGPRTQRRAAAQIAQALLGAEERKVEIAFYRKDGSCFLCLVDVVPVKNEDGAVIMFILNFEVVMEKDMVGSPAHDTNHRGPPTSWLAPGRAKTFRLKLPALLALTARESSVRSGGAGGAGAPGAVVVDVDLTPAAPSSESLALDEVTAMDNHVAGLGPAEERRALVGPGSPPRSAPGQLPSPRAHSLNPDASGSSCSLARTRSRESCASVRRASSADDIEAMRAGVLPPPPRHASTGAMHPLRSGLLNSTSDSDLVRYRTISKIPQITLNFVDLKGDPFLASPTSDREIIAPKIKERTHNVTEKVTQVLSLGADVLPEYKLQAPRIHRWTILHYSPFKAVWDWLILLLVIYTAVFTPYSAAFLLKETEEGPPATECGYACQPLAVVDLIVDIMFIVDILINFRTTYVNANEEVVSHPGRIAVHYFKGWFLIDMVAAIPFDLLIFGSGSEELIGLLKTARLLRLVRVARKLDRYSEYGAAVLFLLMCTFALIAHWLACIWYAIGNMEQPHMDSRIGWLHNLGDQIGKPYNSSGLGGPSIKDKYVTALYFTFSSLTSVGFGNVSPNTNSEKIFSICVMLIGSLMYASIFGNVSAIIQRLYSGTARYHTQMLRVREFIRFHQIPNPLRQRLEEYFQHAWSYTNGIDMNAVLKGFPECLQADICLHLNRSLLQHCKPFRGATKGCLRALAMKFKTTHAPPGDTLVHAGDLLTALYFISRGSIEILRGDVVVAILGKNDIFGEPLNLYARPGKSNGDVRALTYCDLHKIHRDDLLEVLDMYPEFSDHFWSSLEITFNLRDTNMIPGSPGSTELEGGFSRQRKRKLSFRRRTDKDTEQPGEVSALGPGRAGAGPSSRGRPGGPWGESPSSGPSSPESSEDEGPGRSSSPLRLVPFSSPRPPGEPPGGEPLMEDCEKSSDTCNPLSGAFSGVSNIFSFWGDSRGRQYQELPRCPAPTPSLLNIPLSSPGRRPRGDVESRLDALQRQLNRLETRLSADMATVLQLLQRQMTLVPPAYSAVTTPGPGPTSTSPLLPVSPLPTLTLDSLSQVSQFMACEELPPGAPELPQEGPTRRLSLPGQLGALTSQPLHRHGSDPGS

hERG [4] = target: T1, hERG; test: hERG screening, Rubidium Efflux (hERG-CHO cells); assay type: cell-based; conditions: CHO cells expressing hERG; for inhibition at 30 min, 1.5 uG/mL: pH 7.4, 1.5 uG/mL, read-out: HERG Rb efflux % Inhib 1.5 uG/mL; for inhibition at 30 min, 5 uG/mL: pH 7.4, 5 uG/mL, read-out: HERG Rb efflux % Inhib 5 uG/mL
[5] = 30 min pre-incubation with NADPH, read-out: CYP 2D6 IC50 pre
[6] = co-incubation, read-out: CYP 2D6 IC50 co
[7] = 30 min pre-incubation with NADPH, read-out: CYP 3A4 IC50 pre
[8] = co-incubation, read-out: CYP 3A4 IC50 co
[9] = 30 min pre-incubation with NADPH, read-out: CYP 2C9 IC50 pre
[10] = co-incubation, read-out: CYP 2C9 IC50 co

Row | SMILES | Ki [1] | IC50 [2] | CathD Selectivity (human liver Cathepsin D) | IC50 (CYP2D6; [5]) | IC50 (CYP2D6; [6]) | IC50 (CYP3A4; [7]) | IC50 (CYP3A4; [8]) | IC50 (CYP2C9; [9]) | IC50 (CYP2C9; [10]) | inhibition at 5 min, 1 uM (hERG [3]) | inhibition at 5 min, 10 uM (hERG [3]) | inhibition at 30 min, 1.5 uG/mL (hERG [4]) | inhibition at 30 min, 5 uG/mL (hERG [4])
1 | COc1nc(N2C[C@H]3C(=O)N(C)C(=N)N[C@@]3(c3ccc(F)cc3Cl)C2)nc(C)c1F [Example 20] | 0.0045 µM | 0.0095 µM | 106 | > 20 µM | > 20 µM | 8.3 µM | > 20 µM | 8.9 µM | 7.5 µM | 29% | 93% |  | 
2 | COc1nc(N2C[C@H]3C(=O)N(C)C(=N)N[C@@]3(c3ccc(F)cc3)C2)nc(C2CC2)c1F [Example 21] | 0.0048 µM | 0.05 µM | 50 | 10.1 µM | 13.7 µM | > 20 µM | > 20 µM | > 20 µM | > 20 µM | 7% | 73% |  | 
3 | Cc1nc(N2C[C@H]3C(=O)N(C)C(=N)N[C@@]3(c3ccc(F)cc3)C2)nc(C)c1F [Example 28] | 0.064 µM | 0.114 µM |  | ~30 µM | 23.3 µM | > 30 µM | > 30 µM | > 30 µM | > 30 µM |  |  | 13% | 14%
4 | CCc1nc(N2C[C@H]3C(=O)N(C)C(=N)N[C@@]3(c3ccc(F)cc3)C2)nc(OC)c1F [Example 30] | 0.0061 µM | 0.022 µM | 163 | > 30 µM | > 30 µM | > 30 µM | > 30 µM | > 30 µM | > 30 µM | 2% | 31% |  | 
5 | COc1nc(N2C[C@H]3C(=O)N(C)C(=N)N[C@@]3(c3cc(F)ccc3F)C2)nc(C2CC2)c1F [Example 34] | 0.0056 µM | 0.086 µM | 88 | > 20 µM | > 20 µM | > 20 µM | > 20 µM | > 20 µM | > 20 µM | 7% | 65% |  | 
6 | COc1nc(N2C[C@H]3C(=O)N(C)C(=N)N[C@@]3(c3cc(F)ccc3F)C2)nc(C2CC2)c1Cl [Example 35] | 0.0065 µM | 0.09 µM | 634 | > 20 µM | > 20 µM | ~20 µM | > 20 µM | ~20 µM | ~20 µM | 5% | 23% |  | 
7 | COc1nc(N2C[C@H]3C(=O)N(C)C(=N)N[C@@]3(c3cccc(C#N)c3)C2)nc(C)c1F [Example 36] | 0.014 µM | 0.063 µM | 1202 | > 20 µM | > 20 µM | > 20 µM | > 20 µM | > 20 µM | > 20 µM | 3% | 37% |  | 
8 | COc1nc(N2C[C@H]3C(=O)N(C)C(=N)N[C@@]3(c3ccc(F)cc3F)C2)nc(C2CC2)c1F [Example 38] | 0.0027 µM | 0.031 µM | 209 | > 20 µM | > 20 µM | > 20 µM | > 20 µM | > 20 µM | > 20 µM | 12% | 63% |  | 
9 | COc1nc(N2C[C@H]3C(=O)N(C)C(=N)N[C@@]3(c3ccc(F)cc3F)C2)nc(CO)c1F [Example 43] | 0.016 µM | 0.021 µM | 116 | > 20 µM | > 20 µM | > 20 µM | > 20 µM | > 20 µM | > 20 µM | 6% | 27% |  | 

The next lines start with results.

Row | Ki [1] | IC50 [2] | CathD Selectivity (human liver Cathepsin D) | IC50 (CYP2D6; [5]) | IC50 (CYP2D6; [6]) | IC50 (CYP3A4; [7]) | IC50 (CYP3A4; [8]) | IC50 (CYP2C9; [9]) | IC50 (CYP2C9; [10]) | SMILES | inhibition at 5 min, 1 uM (hERG [3]) | inhibition at 5 min, 10 uM (hERG [3]) | inhibition at 30 min, 1.5 uG/mL (hERG [4]) | inhibition at 30 min, 5 uG/mL (hERG [4])
10 | 0.0068 µM | 0.117 µM | 236 | > 20 µM | > 20 µM | > 20 µM | > 20 µM | > 20 µM | > 20 µM | COc1nc(N2C[C@H]3C(=O)N(C)C(=N)N[C@@]3(c3ccc(F)cc3F)C2)nc(C2CC2)c1Cl [Example 19] | 3% | 20% |  | 
11 | 0.0056 µM | 0.018 µM | 53 | > 20 µM | > 20 µM | > 20 µM | > 20 µM | > 20 µM | ~20 µM | CCc1nc(N2C[C@H]3C(=O)N(C)C(=N)N[C@@]3(c3cc(F)c(F)cc3F)C2)nc(OC)c1F [Example 22] | 35% | 96% |  | 
12 | 0.0044 µM | 0.0615 µM | 1063 | ~30 µM | 14.7 µM | 4.2 µM | > 30 µM | > 30 µM | > 30 µM | COc1nc(N2C[C@H]3C(=O)N(C)C(=N)N[C@@]3(c3ccc(F)cc3)C2)nc(OC)c1F [Example 27] | 2% | 51% |  | 
13 |  |  |  | > 30 µM | > 30 µM |  |  | > 30 µM | > 30 µM | COc1nc(N2C[C@H]3C(=O)N(C)C(N)=N[C@@]3(c3c(F)cc(F)c(F)c3F)C2)nc(C)c1F [Example 29] |  |  | -4% | 3%
14 | 0.0069 µM | 0.031 µM | 596 | > 20 µM | > 20 µM | > 20 µM | > 20 µM | > 20 µM | > 20 µM | CCc1nc(N2C[C@H]3C(=O)N(C)C(=N)N[C@@]3(c3cc(F)ccc3F)C2)nc(OC)c1F [Example 31] | 21% | 88% |  | 
15 | 0.0053 µM | 0.026 µM | 310 | > 20 µM | > 20 µM | > 20 µM | > 20 µM | > 20 µM | > 20 µM | CCc1nc(N2C[C@H]3C(=O)N(C)C(=N)N[C@@]3(c3ccc(F)cc3F)C2)nc(OC)c1F [Example 32] | 19% | 95% |  | 
